Biological target: T1, Dihydrofolate reductase (Pneumocystis jirovecii (strain RU7), UniProt A0A0W4ZHR8)
T1 sequence (A0A0W4ZHR8 whole entry): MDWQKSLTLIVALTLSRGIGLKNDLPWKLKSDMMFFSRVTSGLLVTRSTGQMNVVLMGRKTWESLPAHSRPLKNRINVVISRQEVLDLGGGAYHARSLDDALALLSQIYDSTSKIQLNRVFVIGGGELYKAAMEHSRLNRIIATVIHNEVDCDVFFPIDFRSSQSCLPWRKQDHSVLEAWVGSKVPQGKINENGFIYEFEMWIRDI
Experiment: Not found
Description: Not found

SMILES	IC50 [nM]
COc1ccccc1Sc1sc2nc(N)nc(N)c2c1C [US11001595, Compound 2]	177
COc1ccc(Sc2sc3nc(N)nc(N)c3c2C)cc1 [US11001595, Compound 4]	252

From BindingDB's records for patent US11001595 (Duquesne University of The Holy Spirit, 2021)
